{"source": "patent US20190008870A1", "about": "“COMPOSITIONS AND METHODS FOR LIPID METABOLISM DISORDER” (JANSFAT BIOTECHNOLOGY CO., LTD., priority 2016, published 2019)", "key": {"[1]": {"tested_on": "mice fed with HFD", "assay": "Serum and liver lipid levels of mice fed with HFD", "format": "in vivo", "conditions": "for HDL chol. / LDL chol. / TG / Tot. chol.: Dose 2.5 mg/kg (Table 2)", "procedure": "(§1) During the 2 month experiments, mice fasted for one night before the experiment was changed from a standard diet (STD) to an HFD and then the mice were randomly divided into 13 groups, including a protection group, 2 control and 10 treatment groups. Six mice were used in each group. […] Liver from the protection group supplemented with KMUP-1 HCl (1 mg/kg/day) were used to determine the HMG CoA reductase expression. Each group of mice had free access to drinking water from week 1 to week 14. Tap water was used to normalize mineral nutrition.\nWithin 2 months, the 3 day food intake average for each animal was measured. The weight gain and plasma lipid levels of each group were determined and compared to the non-treatment control group. […] Agents used in the assays were obtained from Merck & Co. (Kenilworth, N.J., U.S.A.). Triglyceride (TG), total cholesterol, HDL cholesterol and LDL cholesterol in mouse serum were measured by methods used in the clinic. To measure the hepatic Triglyceride, isolated liver were cut into small chips."}, "[2]": {"tested_on": "ROCK II", "assay": "Expression of ROCK II (Table 12)", "conditions": "Control group 100 (%)"}, "[3]": {"tested_on": "eNOS", "assay": "Expression of eNOS (Table 12)", "conditions": "Control group 100 (%)"}, "[4]": {"tested_on": "PDE-5A", "assay": "Expression of PDE-5A (Table 12)", "conditions": "Control group 100 (%)"}, "[5]": {"tested_on": "ROCK II", "assay": "ROCK II expression in HepG2 cells", "format": "cell-based", "procedure": "(§2) The HepG2 hepatoma cell line was purchased from the American Type Culture Collection (ATCC, Manassas, Va., U.S.A.). Cells were cultured in Dulbecco's Modified Eagle's Medium (DMEM). […] Then the targeted drugs solution was incubated with the cells for 24 hours, followed by protein extraction. […] HepG2 cells were treated with various concentrations of targeted drugs for 24 hours. Reactions were terminated by washing twice with cold PBS, and the cells were then harvested. Proteins in the whole-cell lysate were homogenized in an ice-cold lysis buffer and a protease inhibitor (Sigma-Aldrich, St. Louis, Mo., U.S.A.). The homogenate was centrifuged at 90,000×g for 15 minutes at 4° C., and supernatant was recovered as the total cellular protein. Cytosolic and membrane fractions of HepG2 cells were prepared using a CNM (Cytosol Nuclear Membrane) compartmental protein extraction kit (BioChain Institute Inc., Hayward, Calif., U.S.A.) according to the manufacturer's instructions. All of the fractionated protein solutions were stored at -80° C. until analysis. To measure the expression levels of proteins by drugs, the total cell protein was extracted after incubation with treatments for 24 hours and then Western blotting analysis was performed as described previously."}, "[6]": {"tested_on": "ABCA1", "assay": "ABCA1 expression in HepG2 cells", "format": "cell-based", "conditions": "HepG2 cells, 10^−5 M, 24 hours; Control 100, Vehicle 110", "procedure": "as §2, with “−80°” for “-80°”"}, "[7]": {"tested_on": "PPARγ", "assay": "PPARγ expression in HepG2 cells", "format": "cell-based", "conditions": "HepG2 cells; for PPARγ: Control 100", "procedure": "as §2, with “−80°” for “-80°”"}, "[8]": {"assay": "Body weight and food intake of mice fed with HFD", "format": "in vivo", "conditions": "HFD mice, 5 mg/kg p.o.", "procedure": "as §1, with “In the experiment, C57BL/6J male mice (21-22 g), after fasting, were fed an HFD as a model of hyperlipidemia for 8 weeks. During” for “During”\nWithin 2 months, the 3 day food intake average for each animal was measured. The weight gain and plasma lipid levels of each group were determined and compared to the non-treatment control group. Mouse blood was collected during the daytime by cardiac puncture followed by centrifugation at 90×g (Benchtop Centrifuge, U.S.A.) to separate the serum, and frozen at −80° C., for biochemical analysis using a Hitachi Clinical Analyzer 7070 (Hitachi High-Technologies Co. Tokyo, Japan). Agents used in the assays were obtained from Merck & Co. (Kenilworth, N.J., U.S.A.). Triglyceride (TG), total cholesterol, HDL cholesterol and LDL cholesterol in mouse serum were measured by methods used in the clinic. To measure the hepatic Triglyceride, isolated liver were cut into small chips."}, "[9]": {"tested_on": "HMG CoA reductase", "assay": "HMG CoA reductase expression in HepG2 cells (Western blotting)", "format": "cell-based", "conditions": "for HMGR (%): CTL 100", "procedure": "The HepG2 hepatoma cell line was purchased from the American Type Culture Collection (ATCC, Manassas, Va., U.S.A.). Cells were cultured in Dulbecco's Modified Eagle's Medium (DMEM). The culture media was supplemented with 5% heat-inactivated FBS, penicillin (100 U/mL) and streptomycin (100 μg/mL). Cells were grown in a humidified atmosphere containing 5% CO2 at 37° C., in which the oxygen tension in the incubator was held at 140 mmHg (20% O2, v/v; normoxic conditions). […] Then the targeted drugs solution was incubated with the cells for 24 hours, followed by protein extraction. The targeted drugs were added to the […].\nHepG2 cells were treated with various concentrations of targeted drugs for 24 hours. Reactions were terminated by washing twice with cold PBS, and the cells were then harvested. Proteins in the whole-cell lysate were homogenized in an ice-cold lysis buffer and a protease inhibitor (Sigma-Aldrich, St. Louis, Mo., U.S.A.). The homogenate was centrifuged at 90,000×g for 15 minutes at 4° C., and supernatant was recovered as the total cellular protein. Cytosolic and membrane fractions of HepG2 cells were prepared using a CNM (Cytosol Nuclear Membrane) compartmental protein extraction kit (BioChain Institute Inc., Hayward, Calif., U.S.A.) according to the manufacturer's instructions. All of the fractionated protein solutions were stored at −80° C. until analysis. To measure the expression levels of proteins by drugs, the total cell protein was extracted after incubation with treatments for 24 hours and then Western blotting analysis was performed as described previously."}}, "note": "Several values for one entry are separate records, joined by “and”; a condition that tells them apart may be missing. Equal values may be shown once.", "data": [{"compound": "KMUP-1-sodium carboxyl methylcellulose [KMUP-1-CMC]", "values": [{"measurement": "HDL chol.", "setting": "[1]", "result": "108.4 ± 1.3", "unit": "mg/dL"}, {"measurement": "LDL chol.", "setting": "[1]", "result": "16.4 ± 1.7", "unit": "mg/dL"}, {"measurement": "TG", "setting": "[1]", "result": "83.2 ± 5.3", "unit": "mg/dL"}, {"measurement": "Tot. chol.", "setting": "[1]", "result": "129.7 ± 1.6", "unit": "mg/dL"}, {"measurement": "ROCK II expression", "setting": "[2]", "result": "38.6 ± 2.7", "unit": "%"}, {"measurement": "eNOS expression", "setting": "[3]", "result": "152.14 ± 6.3", "unit": "%"}, {"measurement": "PDE-5A expression", "setting": "[4]", "result": "58.7 ± 3.5", "unit": "%"}]}, {"compound": "Nc1nc2c(nc(Sc3ccc(Cl)cc3)n2[C@@H]2O[C@@H]3CO[P@@](=O)(S)O[C@H]3[C@H]2O)c(=O)[nH]1", "note": "[Rp-8-pCPT-cGMPS, 8-(p-chloro-phenylthio)guanosine-3,5-monophosphorothioate, reference compound]", "values": [{"measurement": "ROCK II expression", "setting": "[5]; Rp-8-pCPT-cGMPS 10 μM alone, Control 100", "result": 320}]}, {"compound": "C[C@@H](N)[C@H]1CC[C@H](C(=O)Nc2ccncc2)CC1", "note": "[Y27632, reference compound]", "values": [{"measurement": "ROCK II expression", "setting": "[5]; 10^−5 M, 24 hours, Control 100, Vehicle 88", "result": 52}, {"measurement": "ABCA1 expression", "setting": "[6]", "result": 225}, {"measurement": "PPARγ expression", "setting": "[7]; 10^−5 M, 24 hours, Control 100, Vehicle 260", "result": 550}]}, {"compound": "KMUP-1-DL-ascorbic acid [KMUP-1-VC]", "values": [{"measurement": "HDL chol.", "setting": "[1]", "result": "97.3 ± 1.6", "unit": "mg/dL"}, {"measurement": "LDL chol.", "setting": "[1]", "result": "16.5 ± 0.9", "unit": "mg/dL"}, {"measurement": "TG", "setting": "[1]", "result": "78.2 ± 3.6", "unit": "mg/dL"}, {"measurement": "Tot. chol.", "setting": "[1]", "result": "129.4 ± 1.4", "unit": "mg/dL"}, {"measurement": "ROCK II expression", "setting": "[2]", "result": "40.8 ± 3.7", "unit": "%"}, {"measurement": "PDE-5A expression", "setting": "[4]", "result": "68.8 ± 5.3", "unit": "%"}]}, {"compound": "CCCc1nn(C)c2c(=O)nc(-c3cc(S(=O)(=O)N4CCN(C)CC4)ccc3OCC)[nH]c12", "note": "[SIDAF, 5-[2-ethoxy-5-(4-methylpiperazin-1-yl)-sulphonylphenyl]-1-methyl-3-propyl-4H-pyrazolo[4,3-d]pyrimidin-7-one, reference compound]", "values": [{"measurement": "HDL cholesterol", "setting": "[1]; 5 mg/kg p.o.", "result": "103.2 ± 2.5", "unit": "mg/dL"}, {"measurement": "LDL cholesterol", "setting": "[1]; 5 mg/kg p.o.", "result": "15.3 ± 1.3", "unit": "mg/dL"}, {"measurement": "TG in serum (Triacylglycerol)", "setting": "[1]; 5 mg/kg p.o.", "result": "82.7 ± 6.3", "unit": "mg/dL"}, {"measurement": "TG of liver", "setting": "[1]; 5 mg/kg p.o.", "result": "34.5 ± 2.** mg/dl"}, {"measurement": "Tot. chol. (total cholesterol)", "setting": "[1]; 5 mg/kg p.o.", "result": "133.7 ± 4.3", "unit": "mg/dL"}, {"measurement": "final BW (Body weight)", "setting": "[8]", "result": "23.9 ± 0.9", "unit": "g"}]}, {"compound": "CC(C)=CCC/C(C)=C/CC/C(C)=C/COP(=O)(O)OP(=O)(O)O", "note": "[FPP, Farnesyl pyrophosphate, reference compound]", "values": [{"measurement": "ROCKII", "setting": "[5]; FPP (10 μM) alone, Control 100", "result": 118, "unit": "%"}, {"measurement": "PPARγ", "setting": "[7]; FPP (10 μM) alone", "result": 64, "unit": "%"}]}, {"compound": "CC(O)(CCO)CC(=O)O", "note": "(stereo not drawn) [Mevalonate]", "values": [{"measurement": "HMGR (%)", "setting": "[9]; Mevalonate 20 (μm)", "result": 110, "unit": "%"}, {"measurement": "HMGR (%)", "setting": "[9]; Mevalonate 40 (μm)", "result": 95, "unit": "%"}, {"measurement": "HMGR (%)", "setting": "[9]; Mevalonate 60 (μm)", "result": 55, "unit": "%"}, {"measurement": "HMGR (%)", "setting": "[9]; Mevalonate 80 (μm)", "result": 48, "unit": "%"}, {"measurement": "HMGR (%)", "setting": "[9]; Mevalonate 100 (μm)", "result": 13, "unit": "%"}, {"measurement": "HMG CoA expression", "setting": "[9]; Mevalonate (100 μM) alone, Control 100", "result": 20, "unit": "%"}]}, {"compound": "CC(C)=CCC/C(C)=C/CC/C(C)=C/CC/C(C)=C/COP(=O)(O)OP(=O)(O)O", "note": "[GGPP, Geranylgeranyl pyrophosphate, reference compound]", "values": [{"measurement": "ROCKII", "setting": "[5]; GGPP (10 μM) alone, Control 100", "result": "150% and 220%"}, {"measurement": "PPARγ", "setting": "[7]; GGPP (10 μM) alone", "result": 50, "unit": "%"}]}]}
